# Experimental data reported in patent US20240382474A1, “ENPP1 MODULATORS AND USES THEREOF” (Vir Biotechnology, Inc., priority 2021, published 2024).
# “Also recorded” adds a separate entry of the source.
# How the values were obtained:
# [1] = target: T1, human ENPP1 enzymatic domain (Homo sapiens, UniProt P22413); test: ENPP1 Enzymatic Inhibition Assay (2′3′-cGAMP substrate, AMP-Glo luminescence); format: biochemical; conditions: 1 nM ENPP1, 20 uM 2′3′-cGAMP, 30 minutes at 37° C.
# T1 construct: recombinant protein containing the human ENPP1 enzymatic domain; purchased Viva Biotech
# T1 sequence (P22413 191-591 limits assumed): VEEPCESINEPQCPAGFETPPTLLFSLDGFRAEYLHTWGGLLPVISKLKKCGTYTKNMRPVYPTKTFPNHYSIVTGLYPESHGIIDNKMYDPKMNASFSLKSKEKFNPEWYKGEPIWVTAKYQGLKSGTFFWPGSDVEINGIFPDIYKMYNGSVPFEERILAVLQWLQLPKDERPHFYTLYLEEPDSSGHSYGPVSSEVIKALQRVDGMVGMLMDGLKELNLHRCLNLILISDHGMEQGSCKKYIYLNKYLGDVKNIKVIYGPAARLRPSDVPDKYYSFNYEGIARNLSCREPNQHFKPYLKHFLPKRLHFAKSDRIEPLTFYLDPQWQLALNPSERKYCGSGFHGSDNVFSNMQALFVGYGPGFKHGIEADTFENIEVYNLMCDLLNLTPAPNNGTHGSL
# Description: The inhibition of ENPP1's phosphodiesterase activity were tested in a purified enzymatic assay using 2′3′-cyclic GAMP as a substrate which allowed for the release of cleaved AMP to be monitored using a luminescent assay.
# Putative inhibitors were diluted in assay buffer (50 mM Tris pH 8.0, 250 mM NaCl, 0.5 mM CaCl2), 1 uM ZnCl2, 1% DMSO) and pre-incubated for 15 minutes at 37° C. with recombinant protein containing the human ENPP1 enzymatic domain (Viva Biotech). The enzymatic reaction was initiated upon addition of the 2′3′-cGAMP substrate. The final reaction concentrations were 1 nM ENPP1 and 20 uM 2′3′-cGAMP substrate in a 25 uL volume. Inhibitor concentrations ranged from 10 uM to 0.056 nM. The reaction was incubated for 30 minutes at 37° C.
# After reacting for 30 minutes, the amount of AMP generated from the cleavage of 2′3′-cGAMP was determined using the Promega AMP-Glo method according to the manufacturer's protocol. First, AMP-Glo reagent 1 was added and incubated with the reaction mix for 1 hour at room temperature. Second, AMP Detection solution was added and the mixture was incubated for an additional hour. The luminescence of the mixture was read on a Perkin Elmer Ensight plate reader.
# The maximum and minimum levels of ENPP1 activity were established using no inhibitor and no enzyme controls, respectively. The activity observed using ENPP1 inhibitors was quantified as the percent of activity relative to these controls. IC50 values were calculated using CDD Vault by fitting a sigmoidal variable slope nonlinear regression model to the data.
# MC38 tumor xenografts [2] = test: Treatment of mice bearing MC38 tumor xenografts (Study 1); format: in vivo, C57BL/6 mice
# Description: Ten week old female C57BL/6 mice were implanted subcutaneously in the flank with 5×10^5 MC38 cells. Tumors were measured every 2-3 days using a caliper. Body weight was measured every 2-3 days. Dosing initiated on Day (when the average tumor volume reached 50 mm^3. Five animals were assigned to each treatment group. Animals were dosed orally by gavage with Compound 26 for 10 days and were monitored through Day 32 or until tumors reached 2.000 mm^3 in volume.
# FIG. 1 provides a graph of mean tumor volumes for this set of mice bearing MC38 tumor xenografts. Mice were divided into three groups: (1) control group, who received no treatment (black circles, solid line); (2) mice who received Compound 26 dosed at 4 mg/kg PO QD (grey triangles, dashed lines); and (3) mice who received Compound 26 dosed at 60 mg/kg PO QD (grey squares, dotted line). In each treatment group, compound 26 was administered once a day for 10 consecutive days, at which time, treatment was ceased.
# MC38 tumor xenografts [3] = test: Treatment of mice bearing MC38 tumor xenografts (Study 2): tumor volume, survival, body weight; format: in vivo, C57BL/6 mice
# Description: (§1) In this study, 6-8 week old female C57BL/6 mice were implanted subcutaneously in the flank with 5×10^5 MC38 cells. Tumors were measured every 2-3 days using a caliper. Body weight was measured every 2-3 days. Dosing initiated on Day (when the average tumor volume reached 50 mm^3 with 15 animals assigned to each treatment group. Animals were dosed orally by gavage with Compound 26 (4 mg/kg PO QD) or Compound 56 (either 1 mg/kg PO QD or 12 mg/kg PO QD).
# (§2) A subset of 5 animals from each group were collected on day 10 after the initiation of dosing. Tumors were harvested and lysed via sonication. Supernatants were collected, adjusted for total protein, and assayed using a Luminex cytokine and chemokine panel (Invitrogen) and an IFN-β ELISA. The remaining 10 animals in each group were dosed and monitored through Day 27 or until tumors reached 2 cm in size.
# FIG. 2A provides a graph of mean tumor volumes for this set of mice bearing MC38 tumor xenografts. Mice were divided into four groups: (1) control group, who received no treatment (black circles, solid line); (2) mice who received Compound 26 dosed at 4 mg/kg PO QD (grey squares, dashed line); (3) mice who received Compound 56 dosed at 12 mg/kg PO QD (grey triangles, dotted line); and (4) mice who received Compound 56 dosed at 1 mg/kg PO QD (empty circles, dotted dashed line).
# MC38 tumor xenografts [4] = test: Treatment of mice bearing MC38 tumor xenografts (Study 3); format: in vivo, C57BL/6 mice; conditions: for survival: day to which some mice survived (Kaplan-Meier, FIG. 5B): all untreated mice deceased by day 21
# Description: as §1, with “when” for “on Day (when”, “7” for “15”, “once daily through Day 27” for “by gavage with Compound 26 (4 mg/kg PO QD)”, “until tumors reached 2 cm in size.” for “Compound 56 (either 1 mg/kg PO QD or 12 mg/kg PO QD).”
# FIGS. 5A-5B provide data for a fourth set of mice bearing MC38 tumor xenografts. FIG. 5A provides a graph of median tumor volumes for this set of mice. Mice were divided into three groups: (1) control group, who received no treatment (circles); (2) mice who received Compound 26 dosed at 4 mg/kg PO QD (squares); and (3) mice who received Compound 56 dosed at 12 mg/kg PO QD (triangles). […] For example, at day 20, tumor volumes for the untreated mice were between 2000 and 3000 mm^3, while for treated mice had tumor volumes between 1000 and 2000 mm^3.
# MC38 tumors = test: Intratumoral cytokine levels at day 10 in MC38 tumors (Study 2; Luminex cytokine and chemokine panel, IFN-β ELISA); format: in vivo, C57BL/6 mice; conditions: 12 mg/kg QD
# Description: as §1, §2
# Intratumoral concentrations for each of these inflammatory cytokines are provided in picogram of cytokine per gram of tumor tissue. FIGS. 4B-F each provide data for each of the following: (1) untreated control group (circles); (2) mice treated with 4 mg/kg QD Compound 26 (triangles); (3) mice treated with 12 mg/kg QD […]; and (4) mice treated with […].
smiles,measurement,setting,value
"COc1ccc2c(Oc3ccc([S@@](=N)(=O)NC[C@@H](C)O)cc3)ccnc2c1 [Compound 26, (S)-N-((R)-2-hydroxypropyl)-4-((7-methoxyquinolin-4-yl)oxy)benzenesulfonimidamide]",IC50,[1],< 10 nM
same,mean tumor volume compared to the control group (FIG. 1),MC38 tumor xenografts [2]; 4 mg/kg PO QD for 10 days,lower
same,mean tumor volume compared to the control group (FIG. 1),MC38 tumor xenografts [2]; 60 mg/kg PO QD for 10 days,lower
same,mean tumor volume compared to the untreated group (FIG. 2A),MC38 tumor xenografts [3]; 4 mg/kg PO QD,smaller
same,"survival: day to which some mice survived (Kaplan-Meier, FIG. 3A)","MC38 tumor xenografts [3]; 4 mg/kg PO QD, all untreated mice deceased by day 22",24 days
same,median tumor volumes compared to the untreated group (FIG. 5A),MC38 tumor xenografts [4]; 4 mg/kg PO QD,significantly lower
same,"survival: day to which some mice survived (Kaplan-Meier, FIG. 5B)",MC38 tumor xenografts [4]; 4 mg/kg PO QD,24 days
"COc1ccc2c(Nc3ccc([S@@](=N)(=O)NCCO)cc3)ccnc2c1 [Compound 54, (S)-N-(2-hydroxyethyl)-4-((7-methoxyquinolin-4-yl)amino)benzenesulfonimidamide]",IC50,[1],< 10 nM
"COc1ccc2c(Nc3ccc([S@](=N)(=O)NC[C@@H](C)O)cc3)ccnc2c1 [Compound 55, (R)-N-((R)-2-hydroxypropyl)-4-((7-methoxyquinolin-4-yl)amino)benzenesulfonimidamide]",IC50,[1],< 10 nM
"COc1ccc2c(Nc3ccc([S@@](=N)(=O)NC[C@@H](C)O)cc3)ccnc2c1 [Compound 56, (S)-N-((R)-2-hydroxypropyl)-4-((7-methoxyquinolin-4-yl)amino)benzenesulfonimidamide]",IC50,[1],< 10 nM
same,mean tumor volume compared to the untreated group (FIG. 2A),MC38 tumor xenografts [3]; 1 mg/kg PO QD,smaller
same,"survival: day to which at least one mouse survived (Kaplan-Meier, FIG. 3A)","MC38 tumor xenografts [3]; 1 mg/kg PO QD, all untreated mice deceased by day 22",> 27 days
same,mean tumor volume compared to the untreated group (FIG. 2A),MC38 tumor xenografts [3]; 12 mg/kg PO QD,smaller; also recorded: greatest reduction in tumor volume
same,"survival: day to which at least one mouse survived (Kaplan-Meier, FIG. 3A)","MC38 tumor xenografts [3]; 12 mg/kg PO QD, all untreated mice deceased by day 22",> 27 days
same,median intratumoral concentration of eotaxin (FIG. 4F),MC38 tumors,~15000 pg eotaxin/g of tumor
same,median intratumoral concentration of interferon beta (IFN beta) (FIG. 4B),MC38 tumors,> 400 pg IFNbeta/g of tumor
same,median intratumoral concentration of interferon γ-induced protein 10 kDa (IP-10) (FIG. 4C),MC38 tumors,3000-4000 pg IP-10/g of tumor
same,median intratumoral concentration of macrophage inflammatory protein-1-beta (MIP-1beta) (FIG. 4D),MC38 tumors,~9000 pg MIP-1 beta/g of tumor
same,median intratumoral concentration of monocyte-chemotactic protein 3 (MCP-3) (FIG. 4E),MC38 tumors,20000-30000 pg MCP-3/g of tumor
same,median tumor volumes compared to the untreated group (FIG. 5A),MC38 tumor xenografts [4]; 12 mg/kg PO QD,significantly lower
same,"survival: day to which some mice survived (Kaplan-Meier, FIG. 5B)",MC38 tumor xenografts [4]; 12 mg/kg PO QD,≥ 27 days
"COc1cccc2c(Nc3ccc([S@](=N)(=O)NCCO)cc3)ccnc12 [Compound 57, (R)-N-(2-hydroxyethyl)-4-((8-methoxyquinolin-4-yl)amino)benzenesulfonimidamide]",IC50,[1],> 100 nM
"COc1cccc2c(Nc3ccc([S@@](=N)(=O)NCCO)cc3)ccnc12 [Compound 58, (S)-N-(2-hydroxyethyl)-4-((8-methoxyquinolin-4-yl)amino)benzenesulfonimidamide]",IC50,[1],< 10 nM
"COc1ccc2c(Nc3ccc([S@](=N)(=O)NC[C@H](O)C(C)(C)C)cc3)ccnc2c1 [Compound 59, (R)-N-((R)-2-hydroxy-3,3-dimethylbutyl)-4-((7-methoxyquinolin-4-yl)amino)benzenesulfonimidamide]",IC50,[1],< 10 nM
"COc1ccc2c(Nc3ccc([S@@](=N)(=O)NC[C@H](O)C(C)(C)C)cc3)ccnc2c1 [Compound 60, (S)-N-((R)-2-hydroxy-3,3-dimethylbutyl)-4-((7-methoxyquinolin-4-yl)amino)benzenesulfonimidamide]",IC50,[1],< 10 nM
"COc1cccc2c(Nc3ccc([S@](=N)(=O)NC[C@@H](C)O)cc3)ncnc12 [Compound 61, (R)-N-((R)-2-hydroxypropyl)-4-((8-methoxyquinazolin-4-yl)amino)benzenesulfonimidamide]",IC50,[1],> 100 nM
"COc1cccc2c(Nc3ccc([S@@](=N)(=O)NC[C@@H](C)O)cc3)ncnc12 [Compound 62, (S)-N-((R)-2-hydroxypropyl)-4-((8-methoxyquinazolin-4-yl)amino)benzenesulfonimidamide]",IC50,[1],10 to 100 nM
"COc1ccc2c(Nc3ccc([S@](=N)(=O)NC[C@@H](C)O)cc3)ncnc2c1 [Compound 63, (R)-N-((R)-2-hydroxypropyl)-4-((7-methoxyquinazolin-4-yl)amino)benzenesulfonimidamide]",IC50,[1],10 to 100 nM
"COc1ccc2c(Nc3ccc([S@@](=N)(=O)NC[C@@H](C)O)cc3)ncnc2c1 [Compound 64, (S)-N-((R)-2-hydroxypropyl)-4-((7-methoxyquinazolin-4-yl)amino)benzenesulfonimidamide]",IC50,[1],< 10 nM
"COc1cc2nccc(Nc3ccc([S@@](=N)(=O)NC4CC4)cc3)c2cc1F [Compound 67, (S)-N-cyclopropyl-4-((6-fluoro-7-methoxyquinolin-4-yl)amino)benzenesulfonimidamide]",IC50,[1],< 10 nM
"COc1cc2nccc(Nc3ccc([S@@](=N)(=O)NC[C@@H](C)O)cc3)c2cc1F [Compound 68, (S)-4-((6-fluoro-7-methoxyquinolin-4-yl)amino)-N-((R)-2-hydroxypropyl)benzenesulfonimidamide]",IC50,[1],< 10 nM
"COc1ccc2c(Nc3ccc([S@@](=N)(=O)NC[C@@H](C)OC(C)=O)cc3)ccnc2c1 [Compound 69, (R)-1-(((S)-4-((7-methoxyquinolin-4-yl)amino)phenyl)sulfonoamidimidamido)propan-2-yl acetate]",IC50,[1],< 10 nM
